According to patent US6670446B1, “N1 modified glycopeptides” (Eli Lilly and Company, priority 1998, dated 2003):

Legend:
Type in all cases: cell-based
[1] = system: Staphylococcus aureus X400; assay: MIC, standard broth micro-dilution assay, SA X400
Procedure: (§1) The antibacterial efficacy of the present compounds is illustrated by Table III. The minimal inhibitory concentrations (MICs) were determined using a standard broth micro-dilution assay.

[2] = system: Staphylococcus aureus SA1199; assay: MIC, standard broth micro-dilution assay, SA 1199
Procedure: as §1

[3] = system: Resistant Enterococcus faecium and faecalis; assay: MIC, standard broth micro-dilution assay, Resistant; details: geometric mean of 4-6 isolates
Procedure: as §1

[4] = system: Staphylococcus aureus X778; assay: MIC, standard broth micro-dilution assay, SA X778
Procedure: as §1

[5] = system: Staphylococcus aureus 491; assay: MIC, standard broth micro-dilution assay, SA 491
Procedure: as §1

[6] = system: Staphylococcus aureus S13E
Procedure: as §1

[7] = system: Staphylococcus epidermidis 270; assay: MIC, standard broth micro-dilution assay, SE 270
Procedure: as §1

[8] = system: Sensitive Enterococcus faecium and faecalis; assay: MIC, standard broth micro-dilution assay, Sensitive; details: geometric mean of 4-6 isolates
Procedure: as §1

[9] = system: Haemophilus influenzae RD; assay: MIC, standard broth micro-dilution assay, HFRD
Procedure: as §1

[10] = system: Enterococcus faecium 180-1; assay: MIC, standard broth micro-dilution assay, EF 180-1
Procedure: as §1

[11] = system: Enterococcus faecalis 2041; assay: MIC, standard broth micro-dilution assay, EF 2041
Procedure: as §1

[12] = system: Enterococcus faecalis 276; assay: MIC, standard broth micro-dilution assay, EF 276
Procedure: as §1

[13] = system: Staphylococcus haemolyticus 415; assay: MIC, standard broth micro-dilution assay, SH 415
Procedure: as §1

[14] = system: Staphylococcus haemolyticus 105; assay: MIC, standard broth micro-dilution assay, SH 105
Procedure: as §1

[15] = system: Staphylococcus aureus 446; assay: MIC, standard broth micro-dilution assay, SA 446
Procedure: as §1

[16] = system: Staphylococcus aureus 489; assay: MIC, standard broth micro-dilution assay, SA 489
Procedure: as §1

Enterococcus faecium 180 = assay: MIC, standard broth micro-dilution assay, EF 180
Procedure: as §1

[17] = system: Staphylococcus aureus SA1199A; assay: MIC, standard broth micro-dilution assay, SA 1199A
Procedure: as §1

[18] = system: Staphylococcus aureus 447; assay: MIC, standard broth micro-dilution assay, SA 447
Procedure: as §1

[19] = system: Enterococcus gallinarum 245; assay: MIC, standard broth micro-dilution assay, EG 245
Procedure: as §1

Escherichia coli EC14 = assay: MIC, standard broth micro-dilution assay, EC 14
Procedure: as §1

| Structure (SMILES) | minimal inhibitory concentration (MIC), SA X400 [1] | minimal inhibitory concentration (MIC), SA 1199 [2] | minimal inhibitory concentration (MIC), Resistant [3] | minimal inhibitory concentration (MIC), SA X778 [4] | minimal inhibitory concentration (MIC), SA 491 [5] | minimal inhibitory concentration (MIC), SA S13E [6] | minimal inhibitory concentration (MIC), SE 270 [7] | minimal inhibitory concentration (MIC), Sensitive [8] | minimal inhibitory concentration (MIC), HFRD [9] | minimal inhibitory concentration (MIC), EF 180-1 [10] | minimal inhibitory concentration (MIC), EF 2041 [11] | minimal inhibitory concentration (MIC), EF 276 [12] | minimal inhibitory concentration (MIC), SH 415 [13] | minimal inhibitory concentration (MIC), SH 105 [14] | minimal inhibitory concentration (MIC), SA 446 [15] | minimal inhibitory concentration (MIC), SA 489 [16] | minimal inhibitory concentration (MIC), EF 180 (Enterococcus faecium 180) | minimal inhibitory concentration (MIC), SA 1199A [17] | minimal inhibitory concentration (MIC), SA 447 [18] | minimal inhibitory concentration (MIC), EG 245 [19] | other results |
| --- | --- | --- | --- | --- | --- | --- | --- | --- | --- | --- | --- | --- | --- | --- | --- | --- | --- | --- | --- | --- | --- |
| CC(C)CCC(=O)N[C@H]1C(=O)N[C@@H](CC(N)=O)C(=O)N[C@H]2C(=O)N[C@H]3C(=O)NC(C(=O)N[C@H](C(=O)O)c4cc(O)cc(O)c4-c4cc3ccc4O)[C@H](OC3CC(C)(N)C(O)C(C)O3)c3ccc(c(Cl)c3)Oc3cc2cc(c3OC2OC(CO)C(O)C(O)C2OC2CC(C)(N)C(O)C(C)O2)Oc2ccc(cc2Cl)[C@H]1O (stereo partly drawn) [Example 4, N^1-(4-methyl-n-pentanoyl)desleucylA82846B] | 0.25 | 0.5 | >128 | 0.5 | 0.125 | 0.5 | 0.5 | 4 | >64 | 0.5 | 1 | 0.5 | 16 | 0.25 | 1 | 0.5 | >64 | 0.5 | 1 | 4 | minimal inhibitory concentration (MIC), EC 14 (Escherichia coli EC14): >64 |
| CC(C)CCC(=O)NC1C(=O)NC(CC(N)=O)C(=O)NC2C(=O)NC3C(=O)NC(C(=O)NC(C(=O)O)c4cc(O)cc(O)c4-c4cc3ccc4O)C(OC3CC(C)(N)C(O)C(C)O3)c3ccc(c(Cl)c3)Oc3cc2cc(c3OC2OC(CO)C(O)C(O)C2OC2CC(C)(NCc3ccc(-c4ccccc4)cc3)C(O)C(C)O2)Oc2ccc(cc2Cl)C1O (stereo not drawn) [Example 5, N^1-(4-methyl-n-pentanoyl)-N^DISACC-(p-phenylbenzyl)desleucylA82846B] | ≦.06 | 0.25 | 27 | 0.125 | ≦.06 | 0.125 | 0.25 | 0.44 | >64 | ≦.06 | ≦.06 | 1 | 1 | ≦.06 | 0.125 | 0.125 | 4 | ≦.06 | ≦.06 | 0.25 | minimal inhibitory concentration (MIC), EC 14 (Escherichia coli EC14): >64 |
| CC1OC(OC2c3ccc(c(Cl)c3)Oc3cc4cc(c3OC3OC(CO)C(O)C(O)C3OC3CC(C)(NCc5ccc(-c6ccccc6)cc5)C(O)C(C)O3)Oc3ccc(cc3Cl)C(O)C(NC(=O)c3ccc(-c5ccccc5)cc3)C(=O)NC(CC(N)=O)C(=O)NC4C(=O)NC3C(=O)NC2C(=O)NC(C(=O)O)c2cc(O)cc(O)c2-c2cc3ccc2O)CC(C)(N)C1O (stereo not drawn) [Example 6, N^1-(p-phenylbenzoyl)-N^DISACC-(p-phenylbenzyl)desleucylA82846B] | 1 | 0.5 | 38 | 0.5 | 0.5 | 1 | 0.5 | 3.5 | >64 | 0.25 | 2 | 2 | 2 | 0.5 | 1 | 2 | 2 | 0.125 | 2 | 1 | minimal inhibitory concentration (MIC), EC 14 (Escherichia coli EC14): >64 |
| CC(C)CCC(=O)NC1C(=O)NC(CC(N)=O)C(=O)NC2C(=O)NC3C(=O)NC(C(=O)NC(C(=O)O)c4cc(O)cc(O)c4-c4cc3ccc4O)C(OC3CC(C)(N)C(O)C(C)O3)c3ccc(c(Cl)c3)Oc3cc2cc(c3OC2OC(CO)C(O)C(O)C2OC2CC(C)(NCc3ccc(-c4ccc(Cl)cc4)cc3)C(O)C(C)O2)Oc2ccc(cc2Cl)C1O (stereo not drawn) [Example 7, N^1-(4-methyl-n-pentanoyl)-N^DISACC-[p-(p-chlorophenyl)benzyl]desleucylA82846B] | 0.5 | 1 | 3.4 | 1 | 0.125 | 0.5 | ≦.06 | 0.22 | 64 | ≦.06 | ≦.06 | ≦.06 | 1 | ≦.06 | 0.5 | 1 | 1 | ≦.06 | 0.5 | ≦.06 | minimal inhibitory concentration (MIC), EC 14 (Escherichia coli EC14): >64 |
| CC1OC(OC2c3ccc(c(Cl)c3)Oc3cc4cc(c3OC3OC(CO)C(O)C(O)C3OC3CC(C)(NCc5ccc(-c6ccc(Cl)cc6)cc5)C(O)C(C)O3)Oc3ccc(cc3Cl)C(O)C(NC(=O)CCCCCCCc3ccccc3)C(=O)NC(CC(N)=O)C(=O)NC4C(=O)NC3C(=O)NC2C(=O)NC(C(=O)O)c2cc(O)cc(O)c2-c2cc3ccc2O)CC(C)(N)C1O (stereo not drawn) [Example 8, N^1-(8-phenyl-n-octanoyl)-N^DISACC-[p-(p-chlorophenyl)benzyl]desleucylA82846B] | 8 | 4 | 4 | 4 | 4 | 8 | 8 | 2 | >64 | 1 | 2 | 1 | 8 | 2 | 16 | 8 | 2 | 2 | 8 | 2 | minimal inhibitory concentration (MIC), EC 14 (Escherichia coli EC14): >64 |
| CC1OC(OC2c3ccc(c(Cl)c3)Oc3cc4cc(c3OC3OC(CO)C(O)C(O)C3OC3CC(C)(NCc5ccc(-c6ccc(Cl)cc6)cc5)C(O)C(C)O3)Oc3ccc(cc3Cl)C(O)C(NC(=O)CCCCCCNC(=O)OC(C)(C)C)C(=O)NC(CC(N)=O)C(=O)NC4C(=O)NC3C(=O)NC2C(=O)NC(C(=O)O)c2cc(O)cc(O)c2-c2cc3ccc2O)CC(C)(N)C1O (stereo not drawn) [Example 9, N^1- [7-(tert-butoxycarboxamido)-n-heptanoyl]-N^DISACC-[p-(p-chlorophenyl)benzyl]desleucylA82846B] | 2 | 1 | 4.8 | 1 | 1 | 1 | 1 | 0.66 | >64 | 0.5 | 0.5 | 1 | 1 | 0.5 | 2 | 1 | 2 | 0.25 | 2 | 1 | minimal inhibitory concentration (MIC), EC 14 (Escherichia coli EC14): >64 |
